Assays:
P. aeruginosa PAO1 [1] = experiment: Nitrocefin hydrolysis assay (outer membrane permeabilization); type: cell-based; details: polymyxin B at 98.3 μM ([…])
Description: Nitrocefin assays were conducted using reported protocols (see Supplementary File).
We also examined the ability of 9e to act as membrane disruptor of the Gram-negative bacteria P. aeruginosa PAO1 (Figure 5), using a nitrocefin colorimetric assay. This assay makes use of a chromogenic cephalosporin derivative, which in the presence of an outer membrane disruptor gains entry to the periplasm, where upon the action of β-lactamases leads to substrate hydrolysis with a detectable color change from yellow to red.
(§1) Briefly, restoring enhancer concentrations were determined with an inoculum of 5x10^5 CFU in 200 µL of MHB containing two-fold serial dilutions of each derivative in the presence of doxycycline at 4.5 […]
(§2) The lowest concentration of the polyamine
(§3) These measurements were independently repeated in triplicate.
(§4) Outer membrane permeabilization was measured using nitrocefin as a chromogenic substrate of periplasmic β-lactamase. […] Nitrocefin hydrolysis was monitored spectrophotometrically by measuring the increase in absorbance at 490 nm. […]
(§5) HEK293 cells were counted manually in a Neubauer hemocytometer and plated at a density of 5,000 cells/well into each well of the 384-well plates containing the 25x (2 µL) concentrated compounds [26,27]. […]
(§6) To measure cytotoxicity, 5 µL (equals 100 µM final) of resazurin was added to each well after incubation and incubated for further 3 h at 37 °C with 5% CO2. After the final incubation, fluorescence intensity […]
reader. […] The concentration-dependent percentage cytotoxicity was fitted to a dose–response function (using Pipeline Pilot) and CC50 values were determined.
Human whole blood was washed three times with three volumes of 0.9% NaCl and then resuspended in the same solution to a concentration of 0.5 x 10^8 cells/mL, as determined by the manual cell count in a Neubauer hemocytometer. […] Hemolysis was determined by measuring the supernatant absorbance at […] (OD405). The absorbance was measured using a Tecan M1000 Pro monochromator plate reader. […]

S. aureus ATCC 25923 [2] = experiment: Real-time growth inhibition curves, S. aureus; type: cell-based; details: optical density during 18 h culturing
Description: Real-time growth curves were determined using reported protocols (see Supplementary File).
Further investigation is required to determine the factors leading to the differences observed in the sub-MIC growth curves for the two compounds.
as §1, §2, §3, §4, §5, §6
reader. […] The concentration-dependent percentage cytotoxicity was fitted to a dose–response function (using Pipeline Pilot) and CC50 values were determined. […]

P. aeruginosa PAO1 [3] = experiment: Real-time growth inhibition curves, P. aeruginosa; type: cell-based; details: optical density during 18 h culturing
MRSA = experiment: ATP efflux assay, MRSA; type: cell-based, methicillin-resistant S. aureus; details: compound at 100 µg/mL
Description: (§7) ATP efflux assays were conducted using reported protocols (see Supplementary File).
(§8) The mechanism of antibiotic action of 9e towards the Gram-positive bacterium Staphylococcus aureus was attributed to its ability to disrupt the bacterial membrane and cause the release of intracellular ATP. The test organisms, being S. aureus ATCC 25923 and MRSA, were briefly exposed to 9e at a single dose of 100 µg/mL, with the leakage of ATP determined by the use of a bioluminescence assay (Figure 4). […] Nevertheless, a 40% level of ATP release is detrimental to the survival of the bacteria. After 3 min, it will be clear that the bacteria will be killed.
(§9) 2.9 ATP efflux measurement
(§10) A solution of the compound was prepared in twice-distilled water at a fixed concentration of 100 µg/mL. The different Gram-positive suspensions were prepared in MH II broth and were incubated at 37 °C. […] Subsequently, 50 µL of Luceferin–Luceferase reagent (Yelen, France) was added to the mixture, and the luminescent signal was quantified with an Infinite M200 microplate reader (Tecan, Männedorf, Switzerland) for five seconds. ATP concentration was quantified by internal sample addition. Squalamine (100 µg/mL) was used as a positive control to quantify the maximum level of ATP efflux and water as the negative control. […]

S. aureus ATCC 25923 [4] = experiment: ATP efflux assay, S. aureus; type: cell-based, Staphylococcus aureus; details: compound at 100 µg/mL
Description: as §7, §8, §9, §10

Row | SMILES | Outer membrane perturbation (nitrocefin hydrolysis) (P. aeruginosa PAO1 [1]) | Real-time bacterial growth inhibition (S. aureus ATCC 25923 [2]) | Real-time bacterial growth inhibition (P. aeruginosa PAO1 [3]) | ATP release relative to positive control squalamine (MRSA) [%] | ATP release relative to positive control squalamine (S. aureus ATCC 25923 [4]) [%]
1 | C=C[C@]1(C)C[C@@H](OC(=O)CSCCN(CC)CC)[C@]2(C)[C@H](C)CC[C@]3(CCC(=O)[C@H]32)[C@@H](C)[C@@H]1O [Compound 2, Tiamulin, reference compound] | failing to exhibit any detectable membrane perturbation | inhibited the growth | No such inhibition |  | 
2 | C=C[C@]1(C)C[C@@H](OC(=O)CNCCCNCCCCCCCCCCNCCCNCC(=O)O[C@@H]2C[C@@](C)(C=C)[C@@H](O)[C@H](C)[C@]34CCC(=O)[C@H]3[C@@]2(C)[C@H](C)CC4)[C@]2(C)[C@H](C)CC[C@]3(CCC(=O)[C@H]32)[C@@H](C)[C@@H]1O.O=C(O)C(F)(F)F.O=C(O)C(F)(F)F.O=C(O)C(F)(F)F.O=C(O)C(F)(F)F [Compound 9e, N^1,N^1′-(Decane-1,10-diyl)bis(N^3-(2-(((3aR,4R,5R,7S,8S,9R,9aS,12R)-8-hydroxy-4,7,9,12-tetramethyl-3-oxo-7-vinyldecahydro-4,9a-propanocyclopenta [8]annulen-5-yl)oxy)-2-oxoethyl)propane-1,3-diaminium) 2,2,2-trifluoroacetate] | inactive | inhibited the growth | No such inhibition | 40 | 40
